Measurements from patent US9505745B2, “Enhancer of zeste homolog 2 inhibitors” (GlaxoSmithKline Intellectual Property (No.2) Limited, priority 2013, dated 2016).

Biological target: EZH2 within the PRC2 complex (Homo sapiens (Human), UniProt Q15910)
Test: EZH2 methyltransferase SPA, biotinylated histone H3K27 peptide substrate (Assay Protocol 2)
Assay type: biochemical
Conditions: 3H-SAM, ≦10 nM approaches limit of detection
Method: Compounds contained herein were evaluated for their ability to inhibit the methyltransferase activity of EZH2 within the PRC2 complex. Human PRC2 complex was prepared by co-expressing each of the 5 member proteins (FLAG-EZH2, EED, SUZ12, RbAp48, AEBP2) in Sf9 cells followed by co-purification. Enzyme activity was measured in a scintillation proximity assay (SPA) where a tritiated methyl group is transferred from 3H-SAM to a lysine residue on a biotinylated, unmethylated peptide substrate derived from histone H3. The peptides were captured on streptavidin-coated SPA beads and the resulting signal was read on a ViewLux plate reader.
Part A. Compound Preparation
• 4. Prepare 10 mM stock of compounds from solid in 100% DMSO. • 5. Set up an 11-point serial dilution (1:4 dilution, top concentration 10 mM) in 100% DMSO for each test compound in a 384 well plate leaving columns 6 and 18 for DMSO controls. • 6. Dispense 10 nL of compound from the dilution plate into reaction plates (Corning, 384-well polystyrene NBS, Cat#3673). Part B. Reagent Preparation Prepare the following solutions: • 7. 1× Base Buffer, 50 mM Tris-HCl, pH 8, 2 mM MgCl2: Per 1 L of base buffer, combine 1 M Tris-HCl, pH 8 (50 mL), 1 M MgCl2 (2 mL), and distilled water (948 mL). • 8. 1× Assay Buffer: Per 10 mL of 1× Assay Buffer, combine 1× Base Buffer (9.96 mL), 1 M DTT (40 uL), and 10% Tween-20 (1 uL) to provide a final concentration of 50 mM Tris-HCl, pH 8, 2 mM MgCl2, 4 mM DTT, 0.001% Tween-20. • 9. 2× Enzyme Solution: Per 10 mL of 2× Enzyme Solution, combine 1× Assay Buffer (9.99 mL) and 3.24 uM EZH2 5 member complex (6.17 uL) to provide a final enzyme concentration of 1 nM. • 10. SPA Bead Solution: Per 1 mL of SPA Bead Solution, combine Streptavidin coated SPA beads (PerkinElmer, Cat#RPNQ0261, 40 mg) and 1× Assay Buffer (1 mL) to provide a working concentration of 40 mg/mL. • 11. 2× Substrate Solution: Per 10 mL of 2× Substrate Solution, combine 40 mg/mL SPA Bead Solution (375 uL), 1 mM biotinylated histone H3K27 peptide (200 uL), 12.5 uM 3H-SAM (240 uL; 1 mCi/mL), 1 mM cold SAM (57 uL), and 1× Assay Buffer (9.13 mL) to provide a final concentration of 0.75 mg/mL SPA Bead Solution, 10 uM biotinylated histone H3K27 peptide, 0.15 uM 3H-SAM (˜12 uCi/mL 3H-SAM), and 2.85 uM cold SAM. • 12. 2.67× Quench Solution: Per 10 mL of 2.67× Quench Solution, combine 1× Assay Buffer (9.73 mL) and 10 mM cold SAM (267 uL) to provide a final concentration of 100 uM cold SAM. Part C. Assay Reaction in 384-well Grenier Bio-One Plates Compound Addition • 3. Stamp 10 nL/well of 1000× Compound to test wells (as noted above). • 4. Stamp 10 nL/well of 100% DMSO to columns 6 & 18 (high and low controls, respectively). Assay • 10. Dispense 5 uL/well of 1× Assay Buffer to column 18 (low control reactions). • 11. Dispense 5 uL/well of 2× Substrate Solution to columns 1-24 (note: substrate solution should be mixed to ensure homogeneous bead suspension before dispensing into matrix reservoir). • 12. Dispense 5 uL/well of 2× Enzyme Solution to columns 1-17, 19-24. • 13. Incubate the reaction for 60 min at room temperature. Quench • 5. Dispense 6 uL/well of the 2.67× Quench Solution to columns 1-24. • 6. Seal assay plates and spin for ˜1 min at 500 rpm. • 7. Dark adapt plates in the ViewLux instrument for 15-60 min. Read plates • 2. Read the assay plates on the Viewlux Plate Reader utilizing the 613 nm emission filter or clear filter (300 s exposure). Reagent addition can be done manually or with automated liquid handler. Results
Percent inhibition was calculated relative to the DMSO control for each compound concentration and the resulting values were fit using standard IC50 fitting parameters within the ABASE data fitting software package.

Sequence of EZH2 within the PRC2 complex (Q15910 whole entry): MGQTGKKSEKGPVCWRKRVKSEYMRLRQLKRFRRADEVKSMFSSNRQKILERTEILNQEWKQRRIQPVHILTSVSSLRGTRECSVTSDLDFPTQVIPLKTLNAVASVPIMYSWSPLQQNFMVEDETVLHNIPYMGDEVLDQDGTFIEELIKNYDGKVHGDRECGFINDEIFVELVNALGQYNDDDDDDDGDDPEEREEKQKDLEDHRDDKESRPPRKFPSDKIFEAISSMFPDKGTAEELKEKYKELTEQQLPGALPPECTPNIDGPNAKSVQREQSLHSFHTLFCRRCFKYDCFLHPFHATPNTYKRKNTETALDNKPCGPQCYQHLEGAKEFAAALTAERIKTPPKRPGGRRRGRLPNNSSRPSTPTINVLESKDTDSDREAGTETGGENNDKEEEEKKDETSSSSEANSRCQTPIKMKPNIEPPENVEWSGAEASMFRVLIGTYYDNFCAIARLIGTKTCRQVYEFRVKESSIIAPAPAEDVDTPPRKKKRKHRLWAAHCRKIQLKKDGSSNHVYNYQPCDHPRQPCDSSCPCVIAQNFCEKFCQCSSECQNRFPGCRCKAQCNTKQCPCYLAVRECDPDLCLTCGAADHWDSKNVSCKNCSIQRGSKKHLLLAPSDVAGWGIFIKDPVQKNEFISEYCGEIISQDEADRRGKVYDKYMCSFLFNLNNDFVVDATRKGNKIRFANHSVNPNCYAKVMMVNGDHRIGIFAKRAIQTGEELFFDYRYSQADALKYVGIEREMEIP
Sequence of EZH2 within the PRC2 complex (O75530 whole entry partner): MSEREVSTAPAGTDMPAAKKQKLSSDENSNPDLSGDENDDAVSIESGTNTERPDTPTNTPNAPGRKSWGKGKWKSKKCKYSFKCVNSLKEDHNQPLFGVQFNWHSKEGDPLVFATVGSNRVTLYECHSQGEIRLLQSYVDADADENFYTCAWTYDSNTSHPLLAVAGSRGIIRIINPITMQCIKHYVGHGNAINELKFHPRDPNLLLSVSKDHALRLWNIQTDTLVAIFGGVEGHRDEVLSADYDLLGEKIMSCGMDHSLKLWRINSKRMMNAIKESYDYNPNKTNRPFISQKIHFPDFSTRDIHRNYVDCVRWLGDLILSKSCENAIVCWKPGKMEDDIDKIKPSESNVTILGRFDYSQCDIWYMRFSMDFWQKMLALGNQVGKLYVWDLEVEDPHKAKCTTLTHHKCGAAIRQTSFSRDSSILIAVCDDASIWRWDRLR
Sequence of EZH2 within the PRC2 complex (Q15022 whole entry partner): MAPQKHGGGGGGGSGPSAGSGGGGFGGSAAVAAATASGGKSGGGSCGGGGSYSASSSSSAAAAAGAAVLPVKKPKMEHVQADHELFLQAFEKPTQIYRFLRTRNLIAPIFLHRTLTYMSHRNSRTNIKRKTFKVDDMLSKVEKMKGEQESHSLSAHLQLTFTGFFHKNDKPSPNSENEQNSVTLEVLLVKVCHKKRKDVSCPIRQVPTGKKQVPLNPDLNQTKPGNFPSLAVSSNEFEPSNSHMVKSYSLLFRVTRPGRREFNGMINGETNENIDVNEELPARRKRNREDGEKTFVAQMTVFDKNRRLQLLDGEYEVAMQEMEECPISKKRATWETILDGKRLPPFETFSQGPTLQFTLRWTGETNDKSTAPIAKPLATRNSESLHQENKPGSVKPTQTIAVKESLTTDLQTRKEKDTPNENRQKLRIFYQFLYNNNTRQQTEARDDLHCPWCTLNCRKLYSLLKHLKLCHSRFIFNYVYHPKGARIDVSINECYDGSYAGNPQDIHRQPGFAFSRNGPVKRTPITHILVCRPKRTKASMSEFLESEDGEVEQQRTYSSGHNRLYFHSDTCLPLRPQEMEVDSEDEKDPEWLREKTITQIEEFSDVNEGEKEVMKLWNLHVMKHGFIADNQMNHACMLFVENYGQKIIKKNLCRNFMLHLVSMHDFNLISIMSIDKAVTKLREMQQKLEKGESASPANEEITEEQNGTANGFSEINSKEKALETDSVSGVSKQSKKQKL
Sequence of EZH2 within the PRC2 complex (Q09028 whole entry partner): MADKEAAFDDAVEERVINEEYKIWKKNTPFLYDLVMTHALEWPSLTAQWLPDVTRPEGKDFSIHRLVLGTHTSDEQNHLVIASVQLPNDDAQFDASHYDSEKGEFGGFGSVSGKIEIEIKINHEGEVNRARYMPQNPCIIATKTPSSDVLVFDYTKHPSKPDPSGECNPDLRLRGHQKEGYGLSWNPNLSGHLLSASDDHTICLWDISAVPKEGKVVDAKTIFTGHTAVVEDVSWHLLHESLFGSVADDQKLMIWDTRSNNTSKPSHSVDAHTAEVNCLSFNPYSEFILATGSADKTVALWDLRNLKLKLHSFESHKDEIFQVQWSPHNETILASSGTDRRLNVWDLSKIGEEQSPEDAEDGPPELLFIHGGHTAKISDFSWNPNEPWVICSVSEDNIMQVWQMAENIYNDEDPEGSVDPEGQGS
Sequence of EZH2 within the PRC2 complex (Q6ZN18 whole entry partner): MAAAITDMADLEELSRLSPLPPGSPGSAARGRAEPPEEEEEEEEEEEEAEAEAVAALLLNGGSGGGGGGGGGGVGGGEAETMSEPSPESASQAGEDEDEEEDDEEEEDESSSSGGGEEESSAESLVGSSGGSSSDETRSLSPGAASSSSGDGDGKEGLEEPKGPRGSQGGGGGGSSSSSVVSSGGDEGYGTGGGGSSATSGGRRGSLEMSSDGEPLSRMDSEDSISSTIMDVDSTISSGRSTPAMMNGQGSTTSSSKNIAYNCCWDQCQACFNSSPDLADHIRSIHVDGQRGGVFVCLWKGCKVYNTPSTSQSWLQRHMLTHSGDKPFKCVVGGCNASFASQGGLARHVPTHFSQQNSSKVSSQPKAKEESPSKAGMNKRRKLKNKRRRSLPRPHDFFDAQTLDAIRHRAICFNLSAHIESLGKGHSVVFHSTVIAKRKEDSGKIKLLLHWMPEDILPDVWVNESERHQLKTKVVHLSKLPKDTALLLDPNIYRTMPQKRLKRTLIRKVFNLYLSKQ

Compound | IC50 [nM]
CCC(c1scc(C(=O)NCc2c(C)cc(C)[nH]c2=O)c1C)[C@H]1CC[C@@H](N(C)C)CC1 (single isomer, unassigned; (+)) [Example 46, (+)-N-((4,6-Dimethyl-2-oxo-1,2-dihydropyridin-3-yl)methyl)-5-(1-((cis)-4-(dimethylamino)cyclohexyl)propyl)-4-methylthiophene-3-carboxamide] | 316
C/C=C(/c1scc(C(=O)NCc2c(C)cc(C)[nH]c2=O)c1C)[C@H]1CC[C@H](NC(=O)OC(C)(C)C)CC1 [Example 34, tert-Butyl ((trans)-4-((E)-1-(4-(((4,6-dimethyl-2-oxo-1,2-dihydropyridin-3-yl)methyl)carbamoyl)-3-methylthiophen-2-yl)prop-1-en-1-yl)cyclohexyl)carbamate] | 100
Cc1cc(C)c(CNC(=O)c2csc(C(O)[C@H]3CC[C@H](N)CC3)c2C)c(=O)[nH]1 (stereo partly drawn) [Example 37, 5-(((trans)-4-Aminocyclohexyl)(hydroxy)methyl)-N-((4,6-dimethyl-2-oxo-1,2-dihydropyridin-3-yl)methyl)-4-methylthiophene-3-carboxamide] | 501
Cc1cc(C)c(CNC(=O)c2csc(C(O)[C@H]3CC[C@H](N(C)C)CC3)c2C)c(=O)[nH]1 (stereo partly drawn) [Example 38, N-((4,6-dimethyl-2-oxo-1,2-dihydropyridin-3-yl)methyl)-5-(((trans)-4-(dimethylamino)cyclohexyl)(hydroxy)methyl)-4-methylthiophene-3-carboxamide] | 158
CCC(c1scc(C(=O)NCc2c(C)cc(C)[nH]c2=O)c1C)C1CCN(C(=O)OC(C)(C)C)CC1 (centres unmarked) [Example 39, tert-Butyl 4-(1-(4-(((4,6-dimethyl-2-oxo-1,2-dihydropyridin-3-yl)methyl)carbamoyl)-3-methylthiophen-2-yl)propyl)piperidine-1-carboxylate] | 50
CCC(c1scc(C(=O)NCc2c(C)cc(C)[nH]c2=O)c1C)C1CCNCC1 (centres unmarked) [Example 40, N-((4,6-Dimethyl-2-oxo-1,2-dihydropyridin-3-yl)methyl)-4-methyl-5-(1-(piperidin-4-yl)propyl)thiophene-3-carboxamide] | 20

Other lines, results leading:

IC50 [nM] | Compound
≤ 10 | CCC(c1scc(C(=O)NCc2c(C)cc(C)[nH]c2=O)c1C)[C@H]1CC[C@H](N(C)C)CC1 (single isomer, unassigned; (+)) [Example 45, (+)-N-((4,6-Dimethyl-2-oxo-1,2-dihydropyridin-3-yl)methyl)-5-(1-((trans)-4-(dimethylamino)cyclohexyl)propyl)-4-methylthiophene-3-carboxamide]
20 | CCC(c1scc(C(=O)NCc2c(C)cc(C)[nH]c2=O)c1C)[C@H]1CC[C@H](N(C)C)CC1 (single isomer, unassigned; (-)) [Example 44, (−)-N-((4,6-Dimethyl-2-oxo-1,2-dihydropyridin-3-yl)methyl)-5-(1-((trans)-4-(dimethylamino)cyclohexyl)propyl)-4-methylthiophene-3-carboxamide]
13 | CCC(c1scc(C(=O)NCc2c(C)cc(C)[nH]c2=O)c1C)[C@H]1CC[C@@H](N(C)C)CC1 (single isomer, unassigned; (-)) [Example 47, (−)-N-((4,6-Dimethyl-2-oxo-1,2-dihydropyridin-3-yl)methyl)-5-(1-((cis)-4-(dimethylamino)cyclohexyl)propyl)-4-methylthiophene-3-carboxamide]
≤ 10 | C/C=C(/c1scc(C(=O)NCc2c(C)cc(C)[nH]c2=O)c1C)C1CCNCC1 [Example 33, (E)-N-((4,6-Dimethyl-2-oxo-1,2-dihydropyridin-3-yl)methyl)-4-methyl-5-(1-(piperidin-4-yl)prop-1-en-1-yl)thiophene-3-carboxamide]
13 | C/C=C(/c1scc(C(=O)NCc2c(C)cc(C)[nH]c2=O)c1C)[C@H]1CC[C@H](N)CC1 [Example 35, 5-((E)-1-((trans)-4-Aminocyclohexyl)prop-1-en-1-yl)-N-((4,6-dimethyl-2-oxo-1,2-dihydropyridin-3-yl)methyl)-4-methylthiophene-3-carboxamide]
